According to patent publication US11814680B2, “Biomarkers for detecting senescent cells” (Universität für Bodenkultur Wien, priority 2017, dated 2023):
Marks after values point to notes of the source that are not given here.

Tested on: p16-3MR mice
Experiment: ROC analysis of discriminatory power of circulating microRNAs
Format: in vivo, mouse
Details: serum, RT-qPCR, DOX vs PBS; symbol after the number = significance
Experimental: (§1) Statistical analysis was performed using Medcalc (version 18.2.1). Normal distribution was assessed using D'Agostino-Pearson test, where normality was accepted at p>0.05. One-way ANOVA together together with Student-Newman-Keuls test for all pairwise comparisons (post-hoc tests) was used to identify significant changes between groups (p<0.05). To assess the discriminatory power of individual microRNAs, receiver operating characteristic (ROC) analysis was applied. ROC curves were plotted using sensitivity (y-axis) and 1-specificity (x-axis) and the area under the ROC curve (AUC) was calculated. MicroRNAs with AUC-values of >0.7 were considered as good discriminators/biomarkers. MicroRNAs with AUC-values >0.8 were considered very good discriminators/biomarkers.
In order to assess the diagnostic power of circulating microRNAs for the exposure with senescence inducing substances (DOX) as well as the efficacy of senolytic treatment, ROC analysis was performed and the area-under-the-curve (AUC) was calculated. […] Table 23 below summarizes AUC values as well as 95% confidence intervals for 24 selected circulating microRNAs.

Substance	ROC Analysis AUC Senescence
miR-23b-3p: circulating microRNA biomarker, SEQ ID No. 47 (AUCACAUUGCCAGGGAUUACC; expressed or natural sequence; listed as Homo sapiens)	0.563°
miR-31-5p: circulating microRNA biomarker, SEQ ID No. 87 (AGGCAAGAUGCUGGCAUAGCU; expressed or natural sequence; listed as Homo sapiens)	0.688+
miR-34a-3p: circulating microRNA biomarker, SEQ ID No. 59 (CAAUCAGCAAGUAUACUGCCCU; expressed or natural sequence; listed as Homo sapiens)	0.953*
miR-125a-5p: circulating microRNA biomarker, SEQ ID No. 90 (UCCCUGAGACCCUUUAACCUGUGA; expressed or natural sequence; listed as Homo sapiens)	0.742+
miR-181b-5p: circulating microRNA biomarker, SEQ ID No. 84 (AACAUUCAUUGCUGUCGGUGGGU; expressed or natural sequence; listed as Homo sapiens)	0.680+
miR-183-3p: circulating microRNA biomarker, SEQ ID No. 85 (GUGAAUUACCGAAGGGCCAUAA; expressed or natural sequence; listed as Homo sapiens)	0.563°
miR-199a-5p: circulating microRNA biomarker, SEQ ID No. 81 (CCCAGUGUUCAGACUACCUGUUC; expressed or natural sequence; listed as Homo sapiens)	0.906*
miR-199b-5p: circulating microRNA biomarker, SEQ ID No. 82 (CCCAGUGUUUAGACUAUCUGUUC; expressed or natural sequence; listed as Homo sapiens)	0.750+
miR-215-5p: circulating microRNA biomarker, SEQ ID No. 86 (AUGACCUAUGAAUUGACAGAC; expressed or natural sequence; listed as Homo sapiens)	0.531°

Same assay, conditions: serum, RT-qPCR, DOX/GCV vs DOX; symbol after the number = significance

Substance	ROC Analysis AUC Senolytic Treatment
miR-23b-3p: circulating microRNA biomarker, SEQ ID No. 47 (AUCACAUUGCCAGGGAUUACC; expressed or natural sequence; listed as Homo sapiens)	0.875*
miR-31-5p: circulating microRNA biomarker, SEQ ID No. 87 (AGGCAAGAUGCUGGCAUAGCU; expressed or natural sequence; listed as Homo sapiens)	0.672°
miR-34a-3p: circulating microRNA biomarker, SEQ ID No. 59 (CAAUCAGCAAGUAUACUGCCCU; expressed or natural sequence; listed as Homo sapiens)	0.5°
miR-125a-5p: circulating microRNA biomarker, SEQ ID No. 90 (UCCCUGAGACCCUUUAACCUGUGA; expressed or natural sequence; listed as Homo sapiens)	0.789*
miR-181b-5p: circulating microRNA biomarker, SEQ ID No. 84 (AACAUUCAUUGCUGUCGGUGGGU; expressed or natural sequence; listed as Homo sapiens)	0.75+
miR-183-3p: circulating microRNA biomarker, SEQ ID No. 85 (GUGAAUUACCGAAGGGCCAUAA; expressed or natural sequence; listed as Homo sapiens)	0.891*
miR-199a-5p: circulating microRNA biomarker, SEQ ID No. 81 (CCCAGUGUUCAGACUACCUGUUC; expressed or natural sequence; listed as Homo sapiens)	0.781*
miR-199b-5p: circulating microRNA biomarker, SEQ ID No. 82 (CCCAGUGUUUAGACUAUCUGUUC; expressed or natural sequence; listed as Homo sapiens)	0.734+
miR-215-5p: circulating microRNA biomarker, SEQ ID No. 86 (AUGACCUAUGAAUUGACAGAC; expressed or natural sequence; listed as Homo sapiens)	0.922*

Tested on: p16-3MR mice
Experiment: RT-qPCR verification of serum circulating microRNA changes, one-way ANOVA
Format: in vivo, mouse
Details: independent of gender, in words
Experimental: p16-3MR (Demaria et al, 2014, Developmental Cell 31:722-733) mice were bred in house and maintained in the AALAC-accredited Buck Institute for Research on Aging (Novato, Calif.) animal facility. 10 to 12-week-old p16-3MR […] mice were used for experiments. Mice were divided in 4 groups and each group consisted of 8 animals, 5 female, and 3 male, respectively. In group A, control mice were injected with PBS. In group B, mice were treated with Ganciclovir (GCV) (Sigma-Aldrich) dissolved in PBS for 5 consecutive days. In group C, mice were treated with one dose of Doxorubicine hydrochloride (Sigma-Aldrich) dissolved in PBS. In group D, mice were first treated with Doxorubicine and then treated 10 days later with GCV. Mice were intraperitoneally injected with one dose of 10 mg/kg of Doxorubicine hydrochloride, and GCV was administered daily by intraperitoneal injections for 5 consecutive days at concentration of 25 mg/kg in PBS. 4 days after the last GCV dose, animals were euthanized with CO2 and blood was withdrawn immediately. Blood was then incubated for 30 min at room temperature and centrifuged at 3400×g for 10 min. Serum was carefully collected in a sterile tube without disturbing the cell pellet and stored at −80° C. for further experiments.
Total RNA extraction was performed from 200 μl of serum using the Qiagen miRNeasy extraction kit (Qiagen, Germany). RNA yield was quality checked for homogenous extraction efficiency and hemolysis on the basis qPCR amplification of spiked-in as well as hemolysis-responsive RNAs (Blondal et al). In total 2 μl total RNA were used for reverse transcription using the Exiqon Universal RT kit II (Exiqon, Denmark). The obtained cDNA samples were pre-diluted 1:40 and subsequently mixed with SYBR Green® Mix (Exiqon, Denmark) to achieve a 1:100 dilution. The mix was distributed to primer-coated 384-well plates containing dried primer pairs for 96 selected microRNA or quality control assays. QPCR amplification was performed on a Roche LightCycler 480 II, using the manufacturer's recommendation for annealing, extension and denaturation.
Raw Cq-values were computed using the 2nd derivative method. Melting curves were checked for peaks to ensure specificity of the amplification reactions. Cq-values were subsequently normalized using Spike-In controls as references, to reduce technical noise in the data.
as §1

Substance	regulation in serum after exposure to DOX compared to PBS
miR-34a-3p: circulating microRNA biomarker, SEQ ID No. 59 (CAAUCAGCAAGUAUACUGCCCU; expressed or natural sequence; listed as Homo sapiens)	significantly (up- or down-regulated)
miR-199a-5p: circulating microRNA biomarker, SEQ ID No. 81 (CCCAGUGUUCAGACUACCUGUUC; expressed or natural sequence; listed as Homo sapiens)	significantly (up- or down-regulated)
miR-199b-5p: circulating microRNA biomarker, SEQ ID No. 82 (CCCAGUGUUUAGACUAUCUGUUC; expressed or natural sequence; listed as Homo sapiens)	significantly (up- or down-regulated)

Same assay, conditions: p<0.05, in words

Substance	change of serum level following senolytic treatment (DOX/GCV compared to DOX)
miR-23b-3p: circulating microRNA biomarker, SEQ ID No. 47 (AUCACAUUGCCAGGGAUUACC; expressed or natural sequence; listed as Homo sapiens)	significantly changed
miR-31-5p: circulating microRNA biomarker, SEQ ID No. 87 (AGGCAAGAUGCUGGCAUAGCU; expressed or natural sequence; listed as Homo sapiens)	significantly changed
miR-125a-5p: circulating microRNA biomarker, SEQ ID No. 90 (UCCCUGAGACCCUUUAACCUGUGA; expressed or natural sequence; listed as Homo sapiens)	significantly changed
miR-181b-5p: circulating microRNA biomarker, SEQ ID No. 84 (AACAUUCAUUGCUGUCGGUGGGU; expressed or natural sequence; listed as Homo sapiens)	significantly changed
miR-183-3p: circulating microRNA biomarker, SEQ ID No. 85 (GUGAAUUACCGAAGGGCCAUAA; expressed or natural sequence; listed as Homo sapiens)	significantly changed
miR-215-5p: circulating microRNA biomarker, SEQ ID No. 86 (AUGACCUAUGAAUUGACAGAC; expressed or natural sequence; listed as Homo sapiens)	significantly changed

Same assay, conditions: serum, DOX/GCV compared to DOX

Substance	One-way ANOVA Senolytic Treatment (DOX/GCV)
miR-23b-3p: circulating microRNA biomarker, SEQ ID No. 47 (AUCACAUUGCCAGGGAUUACC; expressed or natural sequence; listed as Homo sapiens)	* (significant p < 0.05)
miR-31-5p: circulating microRNA biomarker, SEQ ID No. 87 (AGGCAAGAUGCUGGCAUAGCU; expressed or natural sequence; listed as Homo sapiens)	○
miR-34a-3p: circulating microRNA biomarker, SEQ ID No. 59 (CAAUCAGCAAGUAUACUGCCCU; expressed or natural sequence; listed as Homo sapiens)	○
miR-125a-5p: circulating microRNA biomarker, SEQ ID No. 90 (UCCCUGAGACCCUUUAACCUGUGA; expressed or natural sequence; listed as Homo sapiens)	* (significant p < 0.05)
miR-181b-5p: circulating microRNA biomarker, SEQ ID No. 84 (AACAUUCAUUGCUGUCGGUGGGU; expressed or natural sequence; listed as Homo sapiens)	+ (by trend p < 0.2)
miR-183-3p: circulating microRNA biomarker, SEQ ID No. 85 (GUGAAUUACCGAAGGGCCAUAA; expressed or natural sequence; listed as Homo sapiens)	* (significant p < 0.05)
miR-199a-5p: circulating microRNA biomarker, SEQ ID No. 81 (CCCAGUGUUCAGACUACCUGUUC; expressed or natural sequence; listed as Homo sapiens)	+ (by trend p < 0.2)
miR-199b-5p: circulating microRNA biomarker, SEQ ID No. 82 (CCCAGUGUUUAGACUAUCUGUUC; expressed or natural sequence; listed as Homo sapiens)	+ (by trend p < 0.2)
miR-215-5p: circulating microRNA biomarker, SEQ ID No. 86 (AUGACCUAUGAAUUGACAGAC; expressed or natural sequence; listed as Homo sapiens)	* (significant p < 0.05)

Same assay, conditions: serum, n=8 per group, male and female mice

Substance	One-way ANOVA Senescence (DOX vs PBS)
miR-23b-3p: circulating microRNA biomarker, SEQ ID No. 47 (AUCACAUUGCCAGGGAUUACC; expressed or natural sequence; listed as Homo sapiens)	○
miR-31-5p: circulating microRNA biomarker, SEQ ID No. 87 (AGGCAAGAUGCUGGCAUAGCU; expressed or natural sequence; listed as Homo sapiens)	+ (by trend p < 0.2)
miR-34a-3p: circulating microRNA biomarker, SEQ ID No. 59 (CAAUCAGCAAGUAUACUGCCCU; expressed or natural sequence; listed as Homo sapiens)	* (significant p < 0.05)
miR-125a-5p: circulating microRNA biomarker, SEQ ID No. 90 (UCCCUGAGACCCUUUAACCUGUGA; expressed or natural sequence; listed as Homo sapiens)	+ (by trend p < 0.2)
miR-181b-5p: circulating microRNA biomarker, SEQ ID No. 84 (AACAUUCAUUGCUGUCGGUGGGU; expressed or natural sequence; listed as Homo sapiens)	+ (by trend p < 0.2)
miR-183-3p: circulating microRNA biomarker, SEQ ID No. 85 (GUGAAUUACCGAAGGGCCAUAA; expressed or natural sequence; listed as Homo sapiens)	○
miR-199a-5p: circulating microRNA biomarker, SEQ ID No. 81 (CCCAGUGUUCAGACUACCUGUUC; expressed or natural sequence; listed as Homo sapiens)	* (significant p < 0.05)
miR-199b-5p: circulating microRNA biomarker, SEQ ID No. 82 (CCCAGUGUUUAGACUAUCUGUUC; expressed or natural sequence; listed as Homo sapiens)	* (significant p < 0.05)
miR-215-5p: circulating microRNA biomarker, SEQ ID No. 86 (AUGACCUAUGAAUUGACAGAC; expressed or natural sequence; listed as Homo sapiens)	○
